Data: patent US10604541B2, “Glucokinase activators and methods of using same” (BRISTOL-MYERS SQUIBB COMPANY, priority 2016, dated 2020)
Values after ≈ are worked out from the molar mass of the structure shown. Where two headings read alike, the source gives them in different places.

Columns and labels:
[1] = Aqueous solubility; format: physicochemical; conditions: aqueous medium (not further specified)
[2] = biological target: CYP450 3A4 (Homo sapiens, UniProt P08684); assay: CYP450 3A4 inhibition; format: in vitro ADME
Sequence of CYP450 3A4 (P08684 whole entry): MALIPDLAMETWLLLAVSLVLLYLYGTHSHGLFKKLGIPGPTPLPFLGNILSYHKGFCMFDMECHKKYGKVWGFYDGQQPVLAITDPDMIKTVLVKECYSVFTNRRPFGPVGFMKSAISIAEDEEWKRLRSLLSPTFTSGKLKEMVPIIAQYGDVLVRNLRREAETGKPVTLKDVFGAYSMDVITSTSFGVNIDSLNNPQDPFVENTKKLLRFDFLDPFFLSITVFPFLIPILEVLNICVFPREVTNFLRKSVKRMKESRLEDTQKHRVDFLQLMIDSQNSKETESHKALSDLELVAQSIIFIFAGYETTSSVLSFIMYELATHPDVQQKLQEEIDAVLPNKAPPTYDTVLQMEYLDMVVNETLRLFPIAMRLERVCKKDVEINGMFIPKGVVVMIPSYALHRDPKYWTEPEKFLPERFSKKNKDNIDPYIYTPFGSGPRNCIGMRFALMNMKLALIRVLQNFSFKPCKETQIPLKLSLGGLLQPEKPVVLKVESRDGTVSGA

[3] = biological target: CYP450 2C19 (Homo sapiens, UniProt P33261); assay: CYP450 2C19 inhibition; format: in vitro ADME
Sequence of CYP450 2C19 (P33261 whole entry): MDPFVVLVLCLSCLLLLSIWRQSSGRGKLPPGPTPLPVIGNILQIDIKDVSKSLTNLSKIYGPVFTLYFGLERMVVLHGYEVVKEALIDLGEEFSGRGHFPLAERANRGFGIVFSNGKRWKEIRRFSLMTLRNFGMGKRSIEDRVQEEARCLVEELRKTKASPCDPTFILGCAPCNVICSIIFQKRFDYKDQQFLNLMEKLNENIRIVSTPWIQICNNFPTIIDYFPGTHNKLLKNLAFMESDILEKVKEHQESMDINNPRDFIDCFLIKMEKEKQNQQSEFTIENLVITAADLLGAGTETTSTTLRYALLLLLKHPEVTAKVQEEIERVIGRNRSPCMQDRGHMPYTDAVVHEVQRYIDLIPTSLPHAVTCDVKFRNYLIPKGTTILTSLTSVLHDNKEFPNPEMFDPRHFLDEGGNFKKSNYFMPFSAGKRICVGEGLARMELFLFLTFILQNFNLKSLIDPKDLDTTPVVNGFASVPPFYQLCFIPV

[4] = biological target: T1, CYP450 2C8 (Homo sapiens, UniProt P10632); assay: CYP450 2C8 inhibition; format: in vitro ADME
T1 sequence (P10632 1-490): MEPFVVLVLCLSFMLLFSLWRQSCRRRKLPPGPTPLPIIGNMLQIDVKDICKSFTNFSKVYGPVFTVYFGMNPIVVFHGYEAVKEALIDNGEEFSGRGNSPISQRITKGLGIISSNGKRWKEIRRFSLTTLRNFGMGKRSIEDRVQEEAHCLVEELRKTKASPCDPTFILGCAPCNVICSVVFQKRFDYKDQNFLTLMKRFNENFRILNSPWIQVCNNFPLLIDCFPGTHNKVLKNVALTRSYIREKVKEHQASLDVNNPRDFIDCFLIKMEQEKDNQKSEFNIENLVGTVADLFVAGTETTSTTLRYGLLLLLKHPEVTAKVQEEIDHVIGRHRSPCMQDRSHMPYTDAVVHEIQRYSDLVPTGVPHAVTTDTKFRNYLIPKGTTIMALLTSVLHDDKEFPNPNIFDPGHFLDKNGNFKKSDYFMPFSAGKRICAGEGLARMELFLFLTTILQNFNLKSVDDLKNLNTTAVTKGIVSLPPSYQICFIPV

[5] = Metabolic stability in human liver microsomes; format: in vitro ADME
[6] = biological target: CYP450 2D6 (Homo sapiens, UniProt P10635); assay: CYP450 2D6 inhibition; format: in vitro ADME
Sequence of CYP450 2D6 (P10635 whole entry): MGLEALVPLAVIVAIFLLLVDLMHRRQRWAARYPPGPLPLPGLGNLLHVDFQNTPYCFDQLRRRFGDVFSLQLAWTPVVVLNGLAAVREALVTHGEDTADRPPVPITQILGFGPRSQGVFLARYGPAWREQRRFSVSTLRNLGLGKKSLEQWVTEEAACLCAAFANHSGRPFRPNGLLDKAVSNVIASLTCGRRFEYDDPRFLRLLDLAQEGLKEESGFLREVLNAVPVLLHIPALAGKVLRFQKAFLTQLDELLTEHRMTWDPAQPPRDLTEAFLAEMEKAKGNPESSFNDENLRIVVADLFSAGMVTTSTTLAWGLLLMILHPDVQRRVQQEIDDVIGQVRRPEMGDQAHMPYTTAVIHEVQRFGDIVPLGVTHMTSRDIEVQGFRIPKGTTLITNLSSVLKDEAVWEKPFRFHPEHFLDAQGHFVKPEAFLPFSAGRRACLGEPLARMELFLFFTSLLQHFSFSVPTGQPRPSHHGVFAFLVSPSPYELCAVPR

[7] = Pharmacokinetic study in mice (plasma and liver); format: in vivo; conditions: male, C57BL/6J, mouse, C57/B16J mice, 10 mg/kg oral
Procedure: Pharmacokinetic (PK) screening studies were carried out by methods known to one of ordinary skill in the art. For example, study compounds were administered orally to male C57 Black6j (C57B16J) mice (N=3 per time point) at 10 mg/kg as solutions in a PEG400/Cremphor EL/water (40/10/50) vehicle. The mice were fasted overnight prior to the PK study. Blood samples were taken at 0.5, 1, 2, and 4 hr post dose by cardiac bleeding. Blood samples (˜0.2 mL) were added with K2EDTA and centrifuged at 4° C. (1500-2000×g) to obtain plasma. Liver samples (N=3) were collected at 1 hr post dose. The liver tissues were homogenized with 3 volumes of water to form uniform homogenates. Both plasma and liver samples were stored at −20° C. before they were analyzed by LC/MS/MS. The plasma AUC were calculated using linear and log trapezoidal summations. The liver-to-plasma (L/P) ratio was calculated by dividing the total concentration in liver with plasma concentrations for respective mice. The average of L/P ratios from 3 mice was reported together with the standard deviation.

[8] = biological target: T2, CYP450 1A2 (Homo sapiens, UniProt P05177); assay: CYP450 1A2 inhibition; format: in vitro ADME
T2 sequence (P05177 1-516): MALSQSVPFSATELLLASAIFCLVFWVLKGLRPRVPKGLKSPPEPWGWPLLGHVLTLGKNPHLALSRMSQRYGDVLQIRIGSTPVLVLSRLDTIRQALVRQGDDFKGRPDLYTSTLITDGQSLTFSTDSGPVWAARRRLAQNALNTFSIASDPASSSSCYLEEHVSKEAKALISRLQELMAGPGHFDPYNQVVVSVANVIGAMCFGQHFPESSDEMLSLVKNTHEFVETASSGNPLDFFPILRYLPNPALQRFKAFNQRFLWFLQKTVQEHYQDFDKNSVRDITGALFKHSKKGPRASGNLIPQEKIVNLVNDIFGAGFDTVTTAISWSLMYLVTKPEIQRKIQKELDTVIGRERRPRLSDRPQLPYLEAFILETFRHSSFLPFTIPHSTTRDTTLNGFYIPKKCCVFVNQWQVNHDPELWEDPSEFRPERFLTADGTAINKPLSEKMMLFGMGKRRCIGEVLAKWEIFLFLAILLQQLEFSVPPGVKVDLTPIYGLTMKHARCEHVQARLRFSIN

[9] = biological target: T3, Human Glucokinase (Homo sapiens, UniProt P35557); assay: Glucokinase tandem enzymatic assay (human GK); format: biochemical
T3 construct: Full-length human hepatic GK (untagged) was expressed; made in house; host or cells: E. coli BL21 STAR (DE3)pLysS
T3 sequence (P35557 1-466 isoform P35557-2): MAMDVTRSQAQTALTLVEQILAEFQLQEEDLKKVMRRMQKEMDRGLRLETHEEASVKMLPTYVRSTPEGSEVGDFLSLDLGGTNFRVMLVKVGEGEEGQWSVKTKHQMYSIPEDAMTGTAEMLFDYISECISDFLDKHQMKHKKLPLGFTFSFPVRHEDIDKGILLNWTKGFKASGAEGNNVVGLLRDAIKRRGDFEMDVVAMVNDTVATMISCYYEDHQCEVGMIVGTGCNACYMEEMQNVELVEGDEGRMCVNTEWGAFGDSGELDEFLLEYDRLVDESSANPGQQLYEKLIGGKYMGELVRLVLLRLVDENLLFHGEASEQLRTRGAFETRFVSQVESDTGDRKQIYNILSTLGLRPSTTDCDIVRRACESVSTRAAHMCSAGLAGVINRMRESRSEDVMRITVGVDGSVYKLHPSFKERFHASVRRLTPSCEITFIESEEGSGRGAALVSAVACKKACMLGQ
Procedure: Enzymatic activity of human glucokinase (GK) was measured by incubating GK, ATP, and glucose for discrete time periods followed by quenching with EDTA (ethylenediamine tetra-acetic acid). Relative amounts of product glucose-6-phosphate (G6P) were measured by then running a detection assay using G6P dehydrogenase and measuring the conversion of ThioNAD (thio-nicotinamide adenine dinucleotide) to ThioNADH (thio-dihydronicotinamide adenine dinucleotide) at a wavelength of 405 nm. This “uncoupled” enzymatic reaction is denoted as the GK “tandem” assay. Activation of GK by the compound can be assessed using this assay. The GK tandem assay protocol described below was followed using a range of activator compound concentrations from 0 to 100 μM at 5 and 12 mM of glucose. Human full-length glucokinase (GK, 15 nM) was incubated with 5 or 12 mM glucose in a 384 well black microtiter plate with a clear bottom. To initiate the GK reaction, magnesium-ATP (3 mM final concentration) was added to GK in buffer (final buffer conditions of 25 mM HEPES buffer, pH 7.1, containing 1 mM dithiothreitol and 5% DMSO). The total reaction volume was 20 μL. The reaction was allowed to proceed for ten minutes and was then quenched with 5 μL EDTA; 45 mM final). The components of the detection reaction, ThioNAD and G6PDH (glucose-6-phosphate dehydrogenase) (final concentrations of 650 μM and 3.33 Units, respectively), were then added together in a volume of 25 μL, (to give a total volume of 50 μL). Absorbance measurements were made at 405 nm on a SPECTRAMAX® Plus 384 absorbance plate reader (Molecular Devices). Absorbance was read, background glucose-6-phosphate levels were subtracted, after which activation was calculated as a percentage of control activity. Control activity was determined using GK in the presence of vehicle (DMSO), with background glucose-6-phosphate subtracted. Background glucose-6-phosphate was determined by pre-quenching GK with EDTA prior to reaction initiation with ATP. […]

[10] = biological target: CYP450 2C9 (Homo sapiens, UniProt P11712); assay: CYP450 2C9 inhibition; format: in vitro ADME
Sequence of CYP450 2C9 (P11712 whole entry): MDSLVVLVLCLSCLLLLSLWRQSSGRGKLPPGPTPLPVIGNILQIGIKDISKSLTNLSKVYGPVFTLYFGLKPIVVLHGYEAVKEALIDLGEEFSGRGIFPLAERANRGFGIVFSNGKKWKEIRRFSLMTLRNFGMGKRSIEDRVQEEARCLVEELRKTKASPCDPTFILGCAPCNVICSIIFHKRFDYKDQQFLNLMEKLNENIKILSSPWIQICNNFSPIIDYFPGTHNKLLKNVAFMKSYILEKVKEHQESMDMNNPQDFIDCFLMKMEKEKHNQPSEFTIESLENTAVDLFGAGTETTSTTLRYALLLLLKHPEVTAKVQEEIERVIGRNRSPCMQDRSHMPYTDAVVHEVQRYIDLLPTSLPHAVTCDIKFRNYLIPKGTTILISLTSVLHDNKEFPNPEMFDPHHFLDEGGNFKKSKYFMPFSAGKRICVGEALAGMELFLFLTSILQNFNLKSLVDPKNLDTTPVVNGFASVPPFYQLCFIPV

[11] = biological target: T4, Mouse Glucokinase (Mus musculus, UniProt P52792); assay: Glucokinase activation, mouse GK; format: biochemical
T4 sequence (P52792 1-465): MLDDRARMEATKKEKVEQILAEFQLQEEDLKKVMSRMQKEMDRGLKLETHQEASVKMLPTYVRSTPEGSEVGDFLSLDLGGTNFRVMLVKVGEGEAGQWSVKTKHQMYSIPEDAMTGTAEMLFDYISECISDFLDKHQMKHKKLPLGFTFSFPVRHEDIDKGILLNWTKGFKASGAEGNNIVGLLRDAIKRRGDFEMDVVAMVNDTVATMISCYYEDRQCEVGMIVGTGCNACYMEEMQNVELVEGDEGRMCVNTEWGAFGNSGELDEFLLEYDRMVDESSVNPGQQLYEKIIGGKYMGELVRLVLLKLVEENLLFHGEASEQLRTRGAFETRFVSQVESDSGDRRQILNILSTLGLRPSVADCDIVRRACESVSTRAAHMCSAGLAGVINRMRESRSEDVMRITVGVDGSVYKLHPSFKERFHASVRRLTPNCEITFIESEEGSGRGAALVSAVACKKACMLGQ

[12] = tested on: male DIO (diet-induced obese) C57BL/6J mice; assay: Oral glucose tolerance test (OGTT) in DIO mice; format: in vivo, mouse
Procedure: Oral glucose tolerance tests were carried out on male DIO (diet-induced obese) C57BL/6J mice fed a high fat diet (60% kcal from fat) for 26 weeks prior to experimentation. Mice were fasted overnight before use for experiments. A test compound or vehicle (either: 1) 40% PEG 400+10% Cremophore+50% water or 2) 10% dimethyl acetamide+10% ethanol+10% Cremophore+70% water) was given orally 60 min before oral administration of a glucose solution at a dose of 2 g/kg body weight (oral glucose tolerance test; OGTT). Blood glucose levels were measured from tail-bled samples taken at different time points before and after administration of glucose (time course of 2 hours). A time curve of the blood glucose was generated and the change from baseline area-under-the curve (ΔAUC) from 0-120 min was calculated (the time glucose administration being time zero).

[13] = Metabolic stability, mouse; format: in vitro ADME

solubility [1]: 74 µg/mL (≈ 121 µM)
IC50 [2]: > 40 µM
IC50 [3]: > 40 µM
IC50 [4]: 24.6 µM
Metabolic Stability Human Liver Microsomes (0.5 μM) [5]: 80%
IC50 [6]: > 40 µM
Kp at 1 h ([7]; liver/plasma, po, 10 mg/kg, read-out: Liver/Plasma ratio): ~39
AUC(0-t) ([7]; plasma, 0-4 hr): 1.53 µM·h
concentration at 0.5 h ([7]; plasma, 0.5 hr post dose): 604 ± 234 nM
concentration at 1 h ([7]; plasma, 1 hr post dose, read-out: Plasma (1 hr)): 631 ± 286 nM
concentration at 2 h ([7]; plasma, 2 hr post dose): 398 ± 193 nM
concentration at 4 h ([7]; plasma, 4 hr post dose): 193 ± 133 nM
concentration at 1 h ([7]; liver concentration 1 hr post dose, read-out: Liver (1 hr)): 21600 ± 1360 nM
IC50 [8]: > 40 µM
EC50 [9]: 0.036 µM
IC50 [9]: 0.095 µM
Emax ([9]; read-out: Human Glucokinase Ymax (maximal activation)): 194%
IC50 [10]: 26.8 µM
EC50 [11]: 0.037 µM
Emax ([11]; read-out: Mouse Glucokinase Ymax (maximal activation)): 194%
Metabolic Stability Mouse (0.5 μM) [13]: 92%
SMILES: CC[C@@H](COC)Oc1cc(Oc2ccc(S(C)(=O)=O)nc2)cc(C(=O)Nc2nc(CP3(=O)OCCCO3)cs2)c1 [Example 1, 3-(((1S)-1-(methoxymethyl)propyl)oxy)-5-((6-(methylsulfonyl)-3-pyridinyl)oxy)-N-(4-((2-oxido-1,3,2-dioxaphosphinan-2-yl)methyl)-1,3-thiazol-2-yl)benzamide]
reduction in glucose AUC (after an oral glucose tolerance test in diet-induced obese mice) ([12]; 10 μmol/kg dose): 47%
Glucose lowering (AUC) (120 min) ([12]; OGTT, DIO mice, oral dose 10 μmol/kg, AUC 0-120 min): −47%
